Results taken from patent US12344600B2, “c-Myc mRNA translation modulators and uses thereof in the treatment of cancer” (Anima Biotech Inc., priority 2022, dated 2025).

What follows are molecules tested on c-Myc (assay: c-Myc immunofluorescence assay). Details: A549 cells, 24 hours, anti-c-Myc immunofluorescence.
Format: cell-based, human
In short: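 A549 NSCLC cells grown 48 h, then treated 24 h with increasing compound concentrations; fixed in 4% paraformaldehyde, stained with anti-c-Myc antibody plus fluorescent secondary and DAPI. Per-cell c-Myc fluorescence quantified by high-content imaging at 20×; dose-response fitted by logistic regression to give EC50.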

Compound	Myc Efficacy (−LogEC50)
COc1ccc(-c2noc(N3CCC(C(=O)NCC4CCN(Cc5ccc(C)cn5)C4)CC3)n2)cc1 (stereo not shown) [Compound 223, 1-(3-(4-methoxyphenyl)-1,2,4-oxadiazol-5-yl)-N-((1-((5-methylpyridin-2-yl)methyl)pyrrolidin-3-yl)methyl)piperidine-4-carboxamide]	++ (++ ≥5 and <6)
COc1ccc(-c2noc(N3CCC(C(=O)Nc4ccccc4Cl)CC3)n2)cc1 [Compound 224, N-(2-chlorophenyl)-1-(3-(4-methoxyphenyl)-1,2,4-oxadiazol-5-yl)piperidine-4-carboxamide]	+ (+ >3 and <5)
COc1ccc(-c2noc(N3CCN(C(=O)N4CCN(C(C)=O)CC4)CC3)n2)cc1 [Compound 225, 1-(4-(4-(3-(4-methoxyphenyl)-1,2,4-oxadiazol-5-yl)piperazine-1-carbonyl)piperazin-1-yl)ethan-1-one]	− (− ≤3)
COc1ccc(-c2noc(N3CCN(C(=O)N4CCCC(CC(C)C)C4)CC3)n2)cc1 (stereo not shown) [Compound 226, (3-isobutylpiperidin-1-yl)(4-(3-(4-methoxyphenyl)-1,2,4-oxadiazol-5-yl)piperazin-1-yl)methanone]	+ (+ >3 and <5)
COc1ccc(-c2noc(N3CCN(C(=O)C4CCCN(CC(C)C)C4)CC3)n2)cc1 (stereo not shown) [Compound 227, (1-isobutylpiperidin-3-yl)(4-(3-(4-methoxyphenyl)-1,2,4-oxadiazol-5-yl)piperazin-1-yl)methanone]	+ (+ >3 and <5)
COc1ccc(-c2noc(N3CCC(C(=O)NCCCN4CCN(C(=O)c5ccccc5)CC4)CC3)n2)cc1 [Compound 228, N-(3-(4-benzoylpiperazin-1-yl)propyl)-1-(3-(4-methoxyphenyl)-1,2,4-oxadiazol-5-yl)piperidine-4-carboxamide]	+ (+ >3 and <5)
COc1ccc(-c2noc(C3CCC(C(=O)NCC4CC(=O)N(C)C4)CC3)n2)cc1 (stereo not shown) [Compound 229, (1r,4r)-4-(3-(4-methoxyphenyl)-1,2,4-oxadiazol-5-yl)-N-((1-methyl-5-oxopyrrolidin-3-yl)methyl)cyclohexane-1-carboxamide]	+ (+ >3 and <5)
CC(=O)Nc1cccc(-c2noc(N3CCC(C(=O)NCC4CCN(Cc5ccc(C)cc5)C4)CC3)n2)c1 (stereo not shown) [Compound 230, 1-(3-(3-acetamidophenyl)-1,2,4-oxadiazol-5-yl)-N-((1-(4-methylbenzyl)pyrrolidin-3-yl)methyl)piperidine-4-carboxamide]	+ (+ >3 and <5)
COc1ccc(-c2noc(N3CCC(C(=O)NCC4CCN(Cc5ccc(C)cc5)C4)CC3)n2)c(Cl)c1 (stereo not shown) [Compound 231, 1-(3-(2-chloro-4-methoxyphenyl)-1,2,4-oxadiazol-5-yl)-N-((1-(4-methylbenzyl)pyrrolidin-3-yl)methyl)piperidine-4-carboxamide]	++ (++ ≥5 and <6)
COc1ncc(-c2noc(N3CCC(C(=O)NCC4CCN(Cc5ccc(C)cc5)C4)CC3)n2)cn1 (stereo not shown) [Compound 232, 1-(3-(2-methoxypyrimidin-5-yl)-1,2,4-oxadiazol-5-yl)-N-((1-(4-methylbenzyl)pyrrolidin-3-yl)methyl)piperidine-4-carboxamide]	+ (+ >3 and <5)
COc1cnc(-c2noc(N3CCC(C(=O)NCC4CCN(Cc5ccc(C)cc5)C4)CC3)n2)cn1 (stereo not shown) [Compound 233, 1-(3-(5-methoxypyrazin-2-yl)-1,2,4-oxadiazol-5-yl)-N-((1-(4-methylbenzyl)pyrrolidin-3-yl)methyl)piperidine-4-carboxamide]	+ (+ >3 and <5)
COc1ccc(-c2noc(N3CCC(C(=O)NCC4CCN(c5ccccc5)C4)CC3)n2)cc1 (stereo not shown) [Compound 234, 1-(3-(4-methoxyphenyl)-1,2,4-oxadiazol-5-yl)-N-((1-phenylpyrrolidin-3-yl)methyl)piperidine-4-carboxamide]	+ (+ >3 and <5)
COc1ccc(-c2noc(N3CCN(c4nc5ccccc5[nH]4)CC3)n2)cc1 [Compound 235, 5-(4-(1H-benzo[d]imidazol-2-yl)piperazin-1-yl)-3-(4-methoxyphenyl)-1,2,4-oxadiazole]	+ (+ >3 and <5)
COc1ccc(-c2noc(N3CCN(C(=O)c4cccc(CN5CCCCC5)c4)CC3)n2)cc1 [Compound 236, (4-(3-(4-methoxyphenyl)-1,2,4-oxadiazol-5-yl)piperazin-1-yl)(3-(piperidin-1-ylmethyl)phenyl)methanone]	++ (++ ≥5 and <6)
Cc1ccc(CN2CCC(CNC(=O)C3CCN(c4nc(-c5ccc(OC(F)(F)F)cc5)no4)CC3)C2)cc1 (stereo not shown) [Compound 237, N-((1-(4-methylbenzyl)pyrrolidin-3-yl)methyl)-1-(3-(4-(trifluoromethoxy)phenyl)-1,2,4-oxadiazol-5-yl)piperidine-4-carboxamide]	++ (++ ≥5 and <6)
Cc1ccc(CN2CCC(CNC(=O)C3CCN(c4nc(-c5ccc(OC(F)F)cc5)no4)CC3)C2)cc1 (stereo not shown) [Compound 238, 1-(3-(4-(difluoromethoxy)phenyl)-1,2,4-oxadiazol-5-yl)-N-((1-(4-methylbenzyl)pyrrolidin-3-yl)methyl)piperidine-4-carboxamide]	+++ (+++ ≥6)
O=C(NCCCN1CCC(Cc2ccccc2)CC1)C1CCN(c2nc(-c3ccc(OC(F)(F)F)cc3)no2)CC1 [Compound 239, N-(3-(4-benzylpiperidin-1-yl)propyl)-1-(3-(4-(trifluoromethoxy)phenyl)-1,2,4-oxadiazol-5-yl)piperidine-4-carboxamide]	+++ (+++ ≥6)
O=C(NCCCN1CCC(Cc2ccccc2)CC1)C1CCN(c2nc(-c3ccc(OC(F)F)cc3)no2)CC1 [Compound 240, N-(3-(4-benzylpiperidin-1-yl)propyl)-1-(3-(4-(difluoromethoxy)phenyl)-1,2,4-oxadiazol-5-yl)piperidine-4-carboxamide]	+++ (+++ ≥6)
N#Cc1ccc(-c2noc(N3CCC(C(=O)NCCCN4CCC(Cc5ccccc5)CC4)CC3)n2)cc1 [Compound 241, N-(3-(4-benzylpiperidin-1-yl)propyl)-1-(3-(4-cyanophenyl)-1,2,4-oxadiazol-5-yl)piperidine-4-carboxamide]	+++ (+++ ≥6)
COc1ccc(-c2noc(N3CCC(C(=O)NCC4CCN(C(=O)c5ccc(C)cn5)C4)CC3)n2)cc1 (stereo not shown) [Compound 242, 1-(3-(4-methoxyphenyl)-1,2,4-oxadiazol-5-yl)-N-((1-(5-methylpicolinoyl)pyrrolidin-3-yl)methyl)piperidine-4-carboxamide]	+ (+ >3 and <5)
Cc1ccc(CN2CCC(CNC(=O)C3CCN(c4nc(-c5ccc(Cl)cc5)no4)CC3)C2)nc1 (stereo not shown) [Compound 243, 1-(3-(4-chlorophenyl)-1,2,4-oxadiazol-5-yl)-N-((1-((5-methylpyridin-2-yl)methyl)pyrrolidin-3-yl)methyl)piperidine-4-carboxamide]	+++ (+++ ≥6)
Cc1ccc(CN2CCC(CNC(=O)C3CCN(c4nc(-c5ccc(C#N)cc5)no4)CC3)C2)nc1 (stereo not shown) [Compound 244, 1-(3-(4-cyanophenyl)-1,2,4-oxadiazol-5-yl)-N-((1-((5-methylpyridin-2-yl)methyl)pyrrolidin-3-yl)methyl)piperidine-4-carboxamide]	+ (+ >3 and <5)
